{"source": "patent US9572788B2", "about": "“Cell permeable inhibitors of anaphase promoting complex” (President and Fellows of Harvard College, priority 2014, dated 2017)", "key": {"[1]": {"test_system": "U2OS-H2B-GFP cells", "test": "Fluorescence live cell imaging with survival (Cox) analysis, U2OS", "assay_type": "cell-based, human", "conditions": "proTAME 12 μM", "description": "Mitotic duration and cell fate were determined by manual inspection of the movies and plotted as Kaplan-Meier curves. The hatch marks on the Kaplan-Meier curved indicate mitotic duration endpoints of censored cells. Includes the combined results of five independent experiments. […] Pairwise comparison between proTAME and proTAME+apcin-M tested using a Cox proportional hazards model stratified by date, using data from only the experimental blocks in which both proTAME and proTAME+apcin were tested.\nMovies were manually analyzed using Nikon Elements software or Image J.\nPlates were inserted into a covered chamber supplied with humidified 5% CO2 and mounted onto a motorized microscope stage (Prior Scientific). […] A Hamamatsu ORCA cooled CCD camera collected the images with 2×2 binning using Nikon Elements software (version 3.0). Movies were manually analyzed using Nikon Elements software or ImageJ. Mitotic duration was defined as the time from nuclear envelope breakdown until anaphase, in the case of normal mitosis, or until exit from prolonged mitosis as indicated by cytoplasmic blebbing accompanied by changes in chromatin as detected by H2B-GFP.\nThe Cox proportional hazards model is a semiparameteric approach to modeling time-to-event data, in which covariates are assumed to have constant proportional effects over time relative to a baseline hazard function that can take any form. In this case, stratification on “person” (the individual who analyzed the movie) and “date” (the date the assay was run) allow the baseline hazard function to differ across experimental blocks, but assume a fixed effect of treatment across experimental blocks. The model is thus: hi(t|Z=j)=hj(t)exp(β1×apcini+β2×apcinMi+β3×proTAMEi+β4×proTAMEi:apcinMi+β5×proTAMEi:apcini), j=1 . . . […] This model was fit separately to cells treated with control siRNA or Mad2 siRNA. All statistical analysis was carried out in R 3.0.0 using the functions available as part of the survival package."}, "[2]": {"test": "Effect on mitosis in MCF10a cells", "assay_type": "cell-based", "conditions": "similar doses"}, "[3]": {"molecular_target": "APC (Xenopus laevis, UniProt A0A1L8ESF3)", "sequence (A0A1L8ESF3 entry or part of it)": "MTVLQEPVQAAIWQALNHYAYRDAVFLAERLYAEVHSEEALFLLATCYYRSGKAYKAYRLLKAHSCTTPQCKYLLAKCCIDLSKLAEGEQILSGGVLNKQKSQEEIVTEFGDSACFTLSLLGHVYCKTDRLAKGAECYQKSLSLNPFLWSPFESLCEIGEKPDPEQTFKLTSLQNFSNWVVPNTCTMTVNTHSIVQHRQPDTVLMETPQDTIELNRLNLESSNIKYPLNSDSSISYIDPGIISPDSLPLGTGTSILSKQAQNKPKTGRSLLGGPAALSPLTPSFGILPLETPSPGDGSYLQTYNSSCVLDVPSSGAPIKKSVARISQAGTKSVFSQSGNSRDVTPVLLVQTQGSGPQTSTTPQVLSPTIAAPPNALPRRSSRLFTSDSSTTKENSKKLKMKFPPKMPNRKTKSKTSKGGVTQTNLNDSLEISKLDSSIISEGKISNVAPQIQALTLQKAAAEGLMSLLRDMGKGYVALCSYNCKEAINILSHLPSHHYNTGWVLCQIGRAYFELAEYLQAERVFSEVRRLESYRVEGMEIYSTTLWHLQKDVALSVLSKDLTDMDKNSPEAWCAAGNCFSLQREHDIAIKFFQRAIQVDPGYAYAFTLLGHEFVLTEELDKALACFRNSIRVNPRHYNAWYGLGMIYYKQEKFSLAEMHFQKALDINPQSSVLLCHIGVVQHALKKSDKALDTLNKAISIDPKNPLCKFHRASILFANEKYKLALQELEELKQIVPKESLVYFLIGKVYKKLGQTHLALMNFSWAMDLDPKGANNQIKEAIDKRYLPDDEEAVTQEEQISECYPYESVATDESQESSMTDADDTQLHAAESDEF", "sequence (Q6DFD4 entry or part of it, further chain)": "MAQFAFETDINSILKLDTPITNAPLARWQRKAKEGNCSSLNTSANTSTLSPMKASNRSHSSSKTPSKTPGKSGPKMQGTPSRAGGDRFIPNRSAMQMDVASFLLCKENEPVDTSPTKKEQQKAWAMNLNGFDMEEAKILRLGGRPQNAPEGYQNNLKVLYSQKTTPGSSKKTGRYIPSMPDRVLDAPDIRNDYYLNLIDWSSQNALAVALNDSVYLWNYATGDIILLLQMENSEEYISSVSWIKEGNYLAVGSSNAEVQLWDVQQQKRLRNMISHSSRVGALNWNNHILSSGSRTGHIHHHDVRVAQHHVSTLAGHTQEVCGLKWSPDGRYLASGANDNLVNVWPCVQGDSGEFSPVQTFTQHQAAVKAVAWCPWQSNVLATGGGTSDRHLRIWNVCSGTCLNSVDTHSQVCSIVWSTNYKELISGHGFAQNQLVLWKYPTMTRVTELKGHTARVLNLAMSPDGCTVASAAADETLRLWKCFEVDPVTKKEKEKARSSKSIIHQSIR", "test": "Cyclin B1-luciferase reporter degradation (luciferase assay) in mitotic Xenopus egg extract", "assay_type": "biochemical", "conditions": "mitotic Xenopus extract", "method": "The extract was incubated at room temperature and 3 μL samples were taken at 0, 20, 40 and 60 min."}, "[4]": {"test_system": "HeLa H2B-GFP cells", "test": "Mitotic entry monitored by time-lapse imaging", "assay_type": "cell-based, human", "conditions": "for Average time of mitotic entry / Median time of mitotic entry: Fig 4E"}, "[5]": {"test_system": "HeLa cells", "test": "Endogenous APC substrate levels by immunoblot in synchronized HeLa cells", "assay_type": "cell-based, human", "conditions": "12 μM", "description": "FIG. 1E is a series of photographs of gel electrophoresis analysis showing that proTAME stabilizes endogenous APC substrates. HeLa cells were synchronized by double thymidine procedure and released into compounds (12 μM). Protein levels were measured by immunoblot."}, "[6]": {"conditions": "12 μM proTAME added at 0 hr after release from thymidine block"}, "[7]": {"conditions": "12 μM proTAME added at 2 hrs after release"}, "[8]": {"conditions": "12 μM proTAME added at 4 hrs after release"}, "[9]": {"conditions": "12 μM proTAME added at 6 hrs after release"}, "[10]": {"conditions": "12 μM proTAME added at 8 hrs after release"}}, "data": [{"smiles": "COC(=O)[C@H](CCCN/C(=N\\C(=O)OCOC(=O)Cc1ccccc1)NC(=O)OCOC(=O)Cc1ccccc1)NS(=O)(=O)c1ccc(C)cc1", "note": "[proTAME]", "values": [{"measurement": "Median mitotic duration", "setting": "[1]; Table 7, apcin or apcin-M 25 μM", "result": 180}, {"measurement": "% rate of mitotic exit", "setting": "[1]; relative to DMSO control, Cox model, apcin/apcin-M 25 μM", "result": 3.63, "unit": "%"}, {"measurement": "Effect on mitotic duration", "setting": "[2]", "result": "had no effect"}, {"measurement": "Inhibition of cyclin B-luciferase proteolysis", "setting": "[3]", "result": "efficiently inhibits cyclin B-luciferase proteolysis"}, {"measurement": "Average time of mitotic entry", "setting": "[4]; [6]", "result": 712.8, "unit": "min"}, {"measurement": "Median time of mitotic entry", "setting": "[4]; [6]", "result": 696, "unit": "min"}, {"measurement": "Average time of mitotic entry", "setting": "[4]; [7]", "result": 669.0, "unit": "min"}, {"measurement": "Median time of mitotic entry", "setting": "[4]; [7]", "result": 660, "unit": "min"}, {"measurement": "Average time of mitotic entry", "setting": "[4]; [8]", "result": 636.6, "unit": "min"}, {"measurement": "Median time of mitotic entry", "setting": "[4]; [8]", "result": 624, "unit": "min"}, {"measurement": "Average time of mitotic entry", "setting": "[4]; [9]", "result": 619.4, "unit": "min"}, {"measurement": "Median time of mitotic entry", "setting": "[4]; [9]", "result": 612, "unit": "min"}, {"measurement": "Average time of mitotic entry", "setting": "[4]; [10]", "result": 622.6, "unit": "min"}, {"measurement": "Median time of mitotic entry", "setting": "[4]; [10]", "result": 612, "unit": "min"}, {"measurement": "Delay in mitotic entry", "setting": "[4]; added 6 hour or later after release", "result": "did not delay mitotic entry"}, {"measurement": "Delay in mitotic entry", "setting": "[4]; added during release from a double thymidine block", "result": 2, "unit": "h"}, {"measurement": "Stabilization of endogenous cyclin B and securin", "setting": "[5]", "result": "dramatically stabilized"}]}]}
